# Data taken from patent US20230285372A1, “Pharmaceutical use of (E)-3-arylheterocyclylprop-2-enoic acid derivatives” (MEDCURIUS INC., priority 2020, published 2023).
# Counter-ions that a name gives are not always drawn. Like-named read-outs stand apart in the source and are kept apart here.
# How the values were obtained:
# HT-22 cells = test: Protective effect on HT-22 cell damage caused by L-glutamate monosodium salt; format: cell-based, mouse; conditions: 15 mM L-glutamate; for protection of HT22 cells against L-glutamate monosodium salt damage, in words: comparison with positive control drug DMF; for viability at 0.156 µM / viability at 0.313 µM / viability at 2.5 µM / viability at 0.625 µM / viability at 5 µM / viability at 10 µM / viability at 0.078 µM / viability at 1.25 µM: Mus musculus, 24 hours
# Description: (§1) Well-proliferated HT-22 cells, derived from mouse hippocampal neuronal cells in logarithmic growth phase, were selected, and they were counted after being subjected to trypsin digestion and dispersion. The cell density was adjusted with DMEM/F12 medium (containing 10% FBS and 1% double antibody). The cells were then inoculated in a 96-well plate at a density of 2,000 cells per well, and cultured in a cell incubator at 37° C. in atmosphere containing 5% CO2 for 24 hours. For the control group and the L-glutamate monosodium salt group (model group), serum-free DMEM/F12 medium was added, and the other wells were added with tested compounds of different concentrations; except that the serum-free DMEM/F12 medium was added to the control group. L-glutamate monosodium salt solution at the final concentration of 15 mM was added to the remaining wells. After 24 hours, the cell viability was detected with a luminescent cell viability assay kit.
# as §1, with “group,” for “group.”
# as §1, with “2.000” for “2,000”, “group,” for “group.”
# SH-SY5Y cells = test: Protective effect on SH-SY5Y cell damage caused by oxygen-glucose deprivation/reperfusion; format: cell-based; conditions: OGD 4 hours then 24 hours, CCK-8, model 56.83
# Description: SH-SY5Y cells in logarithmic growth phase were selected, the culture medium was discarded, the cells were digested with 0.25% Trypsin containing EDTA, and cell suspension was made. Cell density was adjusted to 30,000/ml with DMEM/F12 medium (containing 10% FBS and 1% double antibody) and it was inoculated to 96-well plate, 100 μL/well, the number of cells per well was 3,000, and the cells were cultured in a cell incubator at 37° C. in an atmosphere containing 5% CO2 for 24 hours. After 24 hours, the cells were washed twice with the Earle's solution. For the control group, 100 μL oxygenated Earle's solution was added in each well, and for the remaining groups, 100 μL oxygen-free Earle's solution after nitrogen bubbling was added, and the oxygen content in an anoxic chamber was kept below 0.5%, and models were made in the cell incubator for 4 hours. […] After 24 hours, CCK-8 cell viability test kit was used to detect the cell viability.
# [1] = HT-22, Table 2, Conc 0.156 μM, L-Glu alone 27.83, read-out: Visibility %
# [2] = HT-22, Table 2, Conc 0.313 μM, L-Glu alone 27.83, read-out: Visibility %
# [3] = HT-22, Table 2, Conc 2.5 μM, L-Glu alone 27.83, read-out: Visibility %
# [4] = HT-22, Table 2, Conc 0.625 μM, L-Glu alone 27.83, read-out: Visibility %
# [5] = HT-22, Table 2, Conc 5 μM, L-Glu alone 27.83, read-out: Visibility %
# [6] = HT-22, Table 2, Conc 10 μM, L-Glu alone 27.83, read-out: Visibility %
# [7] = HT-22, 24 h, Table 1, Conc 0.078 μm, L-Glu alone 27.73 (I-5 32.92), read-out: cell viability
# [8] = HT-22, 24 h, Table 1, Conc 0.156 μm, L-Glu alone 27.73 (I-5 32.92), read-out: cell viability
# [9] = HT-22, 24 h, Table 1, Conc 0.625 μm, L-Glu alone 27.73 (I-5 32.92), read-out: cell viability
# [10] = HT-22, 24 h, Table 1, Conc 1.25 μm, L-Glu alone 27.73 (I-5 32.92), read-out: cell viability
# [11] = HT-22, 24 h, Table 1, Conc 2.5 μm, L-Glu alone 27.73 (I-5 32.92), read-out: cell viability
# [12] = HT-22, 24 h, Table 1, Conc 5 μm, L-Glu alone 27.73 (I-5 32.92), read-out: cell viability
# [13] = HT-22, 24 h, Table 1, Conc 10 μm, L-Glu alone 27.73 (I-5 32.92), read-out: cell viability
# [14] = HT-22, Table 2, Conc 1.25 μM, L-Glu alone 27.83, read-out: Visibility %
# [15] = HT-22, 24 h, Table 1, Conc 0.313 μm, L-Glu alone 27.73 (I-5 32.92), read-out: cell viability
# [16] = HT-22, Table 2, Conc 0.078 μM, L-Glu alone 27.83, read-out: Visibility %
SMILES,viability at 0.078 µM (HT-22 cells; [7]) [%],viability at 0.156 µM (HT-22 cells; [8]) [%],viability at 0.625 µM (HT-22 cells; [9]) [%],viability at 1.25 µM (HT-22 cells; [10]) [%],viability at 2.5 µM (HT-22 cells; [11]) [%],viability at 5 µM (HT-22 cells; [12]) [%],viability at 10 µM (HT-22 cells; [13]) [%],other results
Cc1coc(/C=C/C#N)n1 [Compound I-26],,,,,,,,"protection of HT22 cells against L-glutamate monosodium salt damage, in words (HT-22 cells): perform far better than the positive control drug DMF"
CN(C)C(=O)/C=C/c1nccn1C [Compound I-24],,,,,,,,viability at 0.156 µM (HT-22 cells; [1]): 39.6%; viability at 0.313 µM (HT-22 cells; [2]): 38%; viability at 2.5 µM (HT-22 cells; [3]): 35.7%
COC(=O)NC(=O)/C=C/c1ccncc1 [Compound I-17],,,,,,,,viability at 0.156 µM (HT-22 cells; [1]): 48.3%; viability at 0.625 µM (HT-22 cells; [4]): 51.2%; viability at 5 µM (HT-22 cells; [5]): 33.6%; viability at 10 µM (HT-22 cells; [6]): 31.2%
COC(=O)NC(=O)/C=C/c1ccccn1 [Compound I-15],,,,,,,,viability at 2.5 µM (HT-22 cells; [3]): 43.1%; viability at 10 µM (HT-22 cells; [6]): 34.1%
CN(C)C(=O)/C=C/c1ccncc1 [Compound I-13],52.4,58.8,64.9,61.6,59.7,51.5,51.6,"protection of HT22 cells against L-glutamate monosodium salt damage, in words (HT-22 cells): better effects than the positive control drug DMF"
COC(=O)/C=C/c1ncc[nH]1 [Compound I-22],,,,,,,,viability at 1.25 µM (HT-22 cells; [14]): 40%; viability at 2.5 µM (HT-22 cells; [3]): 42.7%
COC(=O)/C=C/c1nc(C)cs1 [Compound I-28],,,,,,,,"protection of HT22 cells against L-glutamate monosodium salt damage, in words (HT-22 cells): perform far better than the positive control drug DMF"
COC(=O)/C=C/c1ccccn1 [Compound I-1],38.7,45.7,47.9,43.5,,38.4,33.4,
COC(=O)/C=C/c1cccnc1 [Compound I-3],46.8,50.6,46.8,45.2,47.5,37.3,31.2,
"CC1=NN(c2ccccc2)C(=O)C1 [Edaravone, reference compound]",,,,,,,,Visibility % (SH-SY5Y cells; Conc 0.078 μM): 59.41%; Visibility % (SH-SY5Y cells; Conc 0.156 μM): 62.42%; Visibility % (SH-SY5Y cells; Conc 10 μM): 67.39%
N#C/C=C/c1cccnc1 [Compound I-6],40.1,43.3,,40.9,43,40.1,42.6,viability at 0.313 µM (HT-22 cells; [15]): 42.9%
COC(=O)/C=C/c1ccncc1 [Compound I-4],45.1,44.1,42.3,41.3,40.5,40.2,37.6,viability at 0.313 µM (HT-22 cells; [15]): 42.7%
CN(C)C(=O)/C=C/c1cccnc1 [Compound I-12],48.9,,49.5,45.6,44.2,39.3,44.3,viability at 0.313 µM (HT-22 cells; [15]): 50.8%
CN(C)C(=O)/C=C/c1ccccn1 [Compound I-11],42.4,42.2,44.2,43.6,46.5,35.4,40.3,viability at 0.313 µM (HT-22 cells; [15]): 46.1%
Cc1csc(/C=C/C#N)n1 [Compound I-30],,,,,,,,"protection of HT22 cells against L-glutamate monosodium salt damage, in words (HT-22 cells): perform better than the positive control drug DMF"
N#C/C=C/c1ccccn1 [I-5 HCl],,,,,,,,Visibility % (SH-SY5Y cells; Conc 0.078 μM): 67.72%; Visibility % (SH-SY5Y cells; Conc 0.156 μM): 67.82%; Visibility % (SH-SY5Y cells; Conc 0.313 μM): 69.35%; Visibility % (SH-SY5Y cells; Conc 0.625 μM): 74.72%
COC(=O)NC(=O)/C=C/c1cccnc1 [Compound I-16],,,,,,,,viability at 0.078 µM (HT-22 cells; [16]): 41.3%; viability at 0.625 µM (HT-22 cells; [4]): 34.2%; viability at 2.5 µM (HT-22 cells; [3]): 40.4%
CON(C)C(=O)/C=C/c1ccccn1 [Compound I-8],,77.8,71.1,54.6,54.8,50.9,53,"protection of HT22 cells against L-glutamate monosodium salt damage, in words (HT-22 cells): better effects than the positive control drug DMF; viability at 0.313 µM (HT-22 cells; [15]): 70.6%"
CON(C)C(=O)/C=C/c1ccncn1 [Compound I-21],,,,,,,,viability at 2.5 µM (HT-22 cells; [3]): 60.3%; viability at 10 µM (HT-22 cells; [6]): 58.4%
COC(=O)/C=C/c1nccn1C [Compound I-23],,,,,,,,"protection of HT22 cells against L-glutamate monosodium salt damage, in words (HT-22 cells): equivalent to that of a positive control drug DMF; viability at 0.078 µM (HT-22 cells; [16]): 65.4%; viability at 0.313 µM (HT-22 cells; [2]): 38.3%; viability at 1.25 µM (HT-22 cells; [14]): 39%"
N#C/C=C/c1ccncc1 [Compound I-7],48.8,48,40.6,55.5,,32.2,,viability at 0.313 µM (HT-22 cells; [15]): 42.8%
COC(=O)/C=C/c1ncccn1 [Compound I-18],,,,,,,,viability at 5 µM (HT-22 cells; [5]): 40.9%
CON(C)C(=O)/C=C/c1cccnc1 [Compound I-9],35.5,35.8,45.8,41.6,40.1,43.4,40.1,viability at 0.313 µM (HT-22 cells; [15]): 40.8%
CON(C)C(=O)/C=C/c1ccncc1 [Compound I-10],44.7,43,43.3,41.9,47.8,43.4,37.5,viability at 0.313 µM (HT-22 cells; [15]): 43.7%
COC(=O)/C=C/c1ncco1 [Compound I-27],,,,,,,,"protection of HT22 cells against L-glutamate monosodium salt damage, in words (HT-22 cells): perform better than the positive control drug DMF"
CN(C)C(=O)/C=C/c1ccncn1 [Compound I-20],,,,,,,,viability at 0.156 µM (HT-22 cells; [1]): 43.4%; viability at 2.5 µM (HT-22 cells; [3]): 57.1%; viability at 10 µM (HT-22 cells; [6]): 51.2%
CN(C)C(=O)/C=C/c1ncccn1 [Compound I-19],,,,,,,,viability at 0.078 µM (HT-22 cells; [16]): 47.1%; viability at 0.156 µM (HT-22 cells; [1]): 39.2%; viability at 0.313 µM (HT-22 cells; [2]): 37.5%
